Holding throughout (format): cell-based
Test [1] has as its system primary human neutrophils. The test is described as follows: Neutrophil survival/viability by MTT assay. As for the experimental part: primary human neutrophils are isolated and purified from peripheral blood of normal healthy individuals. Neutrophils are resuspended in serum containing culture medium together with various amounts of GM-CSF at a density of 2×10^6/ml, with 100 μl plated into a 96 well plate and cultured for 18 h at 37° C. After this time 10 μl of MTT (5 mg/ml) is added to the cultures and incubated for a further 4 h at 37° C. before solubilisation of the purple coloured formazan with acidic isopropanol. Optical densities are read at 570 nm using a plate reader.
A time course of GM-CSF additions was carried out to neutrophils in order to determine up to what stage GM-CSF can induce survival in neutrophils. primary human neutrophils are isolated and purified from peripheral blood of normal healthy individuals. Neutrophils are resuspended in serum containing culture medium at a concentration of 2×10^6/ml, with 100 μl/well plated into a 96 well plate and culture at 37° C. commenced. At the indicated time points GM-CSF (50U/ml) was added to the neutrophils and culture continued until 20 h post initiation of culture. After this time, 10 μl of MTT (5 mg/ml) was added to the cultures and incubated for a further 4 h at 37° C. before solubilisation of the purple coloured formazan with acidic isopropanol. Optical densities were read at 570 nm using a plate reader. […] However, if administration of the cytokine is delayed for 20 h post isolation, the protective effect is zero in 24 h cultures.
We performed timed additions of anti-GM-CSF antibody to neutrophils in order to determine how immediate the anti-apoptotic effects induced by GM-CSF occur. primary human neutrophils are isolated and purified from peripheral blood of normal healthy individuals. […] Optical densities are read at 570 nm using a plate reader. […]
In our system, cells are cultured in 96 well plates in 100 μl of culture medium and are treated in ways known to induce apoptosis. […] At the end of the incubation period the converted dye is solubilised with acidic-isopropanol (0.04N HCL. Absorbance of converted dye is measured at a wavelength of 570 nm.

Test [2] has as its system HeLa cells. As to conditions: agent plus cisplatin 10 μg/ml, overnight, crystal violet. As for the experimental part:
In our system, cells are cultured in 96 well plates in 100 μl of culture medium and are treated in ways known to induce apoptosis. Following an indicated period of time, 10 μl MTT stock solution (5 mg/mi) is added to each culture being assayed and incubated at 37° C. for 4 h. At the end of the incubation period the converted dye is solubilised with acidic-isopropanol (0.04N HCL. Absorbance of converted dye is measured at a wavelength of 570 nm.
The following example describes a method to analyse viability of adherent cells, such as HeLa, using chemical stain Crystal Violet. Adherent cells are cultured in the presence of known agents to induce/ modulate the apoptotic process. After a suitable period of time, supernatants are removed by inverting and flicking the plate. Wells are washed twice with PBS and remaining adherent cells are fixed with 100% EtOH and air-dried. To each well is added 100 μl of 1% aqueous Crystal Violet Solution (Sigma). Plates are then incubated at room temperature (RT) for 5 min before washing in tap water. Wells are solubilised in 33% acetic acid and optical density is measured at 570 nm using a plate reader.
HeLa cells are plated in full culture medium at a concentration of 2×10^4 cells/well of 96 well plate. […] Cells are cultured overnight at 37° C. before analysing for apoptosis using either MTT or crystal violet.
HeLa cells are plated in full culture medium at a concentration of 2×10^4 cells/well of 96 well plate. […] Cells are cultured overnight at 37° C. before analysing for apoptosis using crystal violet.
HeLa cells are plated into 96 well plate at a concentration of 2×10^4/well and allowed to adhere for 4 hours Culture medium is then replaced with fresh medium containing the indicated concentrations of TNFα together with 5 μg/ml cycloheximide. Cultures are maintained for a further 18 hours, before measuring apoptosis with crystal violet and reading @570 nm in a plate reader.
Cells are cultured for a further 18 h before staining the remaining adherent cells with crystal violet and measuring absorbance at 570 nm.

Test [3] deals with primary human neutrophils. The experiment in a line: Neutrophil gene expression, Incyte LifeGrid microarray. As for the experimental part: Primary human neutrophils are isolated and purified from peripheral blood of normal healthy individuals. Neutrophils are resuspended in serum containing culture medium together with GM-CSF (50U) at a concentration of 2×10^6/ml, and cultured for 0 h (control), 2 h, 4 h and 6 h at 37° C. After these times, total cellular RNA is extracted and this used as the starting material for analysis of gene expression changes.
Primary human neutrophils are isolated and purified from peripheral blood of normal healthy individuals. Neutrophils are resuspended in serum containing culture medium together with GM-CSF (50U) at a concentration of 2×10^6/ml, and cultured for 0 h (control), 2 h, 4 h and 6 h at 37° C. After these times, total cellular RNA is extracted and this used as the starting material for analysis of gene expression changes using the Incyte “LifeGrid” microarray. Following cluster analysis, a cluster of genes are identified that contained several genes involved in neutrophil survival and whose transcription is up—regulated upon GM-CSF treatment. This cluster, which included BcI2-A1 (a ‘known’ antiapoptotic neutrophil BCL2 family member) is termed the ‘survival’ cluster (See FIG. 14). Among these genes, one group that could be clearly identified are those genes whose protein products are involved in protecting the cell against an increased oxidative environment (FIG. 14). […] Since all these gene products are attenuators of the oxidative cellular response it is indicative that GM-CSF protects the cell by reducing the harmful effects of reactive oxygen species. The corollary therefore is that spontaneous apoptosis must be due to an uncontrolled oxidative environment within the cell. Furthermore, this reaffirms that the neutrophils response to reactive oxidative species is […] of the glutathione system.
Methodology is as described by manufacturer, for Human LifeGrid™ arrays. Essentially, total cellular RNA (1 μg to 20 μg) or polyA+ mRNA (100 ng to 5 μg) is incubated with an oligo (dT) primer. Primed RNA is reverse transcribed to first stand cDNA in a reaction containing M-MLV reverse transcriptase (RT; alternatively Superscript II is used (Life Sciences)), RT buffer, dNTPs and [α-^33P] dCTP (2000-4000 Ci/mmol) at 42° C. for 1 to 5 h.
Methodology is as described by manufacturer, for Human LifeGrid™ arrays.

The mark [4] stands for this setting: GM-CSF (50U), vs control levels.

“Also recorded” adds a separate entry of the source.

Regarding `CCCCS(=N)(=O)CCC(N)C(=O)O` (stereo not shown) [BSO, buthionine sulphoximine], the “effect on GM-CSF mediated survival” value in test [1] (BSO 1 or 4 mM, GM-CSF 5 u/ml, 18 h) is listed as “did not impact on GM-CSF to mediate survival”. For the same compound, the “HeLa cell sensitivity to cisplatin” value in test [2] was “increase the sensitivity; also recorded: dramatically sensitises HeLa cell towards cisplatin”.
Take `CC(=O)N[C@@H](CS)C(=O)O` [NAC]: in test [2], the “HeLa cell sensitivity to cisplatin” value was “decreased; also recorded: desensitised towards cisplatin”.
Consider “GM-CSF: well-characterised neutrophil growth/survival factor (cytokine)”, for which the “relation of survival to GM-CSF concentration (MTT)” value in test [1] (18 h culture) was “direct correlation between survival and concentrations of GM-CSF”. For the same compound, in test [1] (GM-CSF 50U/ml, 24 h cultures), the “protective effect when GM-CSF addition is delayed 20 h post isolation” value is “zero and not sufficient to mediate survival”. In test [3] (setting [4]), the expression of catalase result is “increased expression”, the expression of ferritin result is “increased expression” and the “expression of mitochondrial superoxide dismutase” value is recorded as “increased expression”. In addition, in test [3] (GM-CSF, 6 hour period), the “transcription of fructose 1,6 bisphosphatase” value is “upregulates” and the “transcription of phosphofructokinase 1” value is reported as “down regulated”.

The values are drawn from US20030180735A1, “Screening method” (priority 1999, published 2003).
